{"source": "patent US20260273012A1", "about": "“Camellia Oleifera Tea Oil Concentrate and Uses Thereof” (Laboratoires Expanscience, priority 2023, published 2026)", "type_in_all_cases": "cell-based", "key": {"[1]": {"tested_on": "interleukin-1 alpha (IL-1 alpha)", "assay": "IL-1 alpha produced by normal human keratinocytes under PMA-induced inflammatory stress (ELISA)", "settings": "Dexamethasone 0.1 μM, PMA 10 μg/ml", "protocol": "(§1) The anti-inflammatory activity of tea oil concentrate (THE) was investigated by assaying interleukin-1 alpha (IL-1 alpha) produced by keratinocytes in response to pro-inflammatory stress induced by PMA (Phorbol-Myristate-Acetate) in a normal human keratinocyte model, in a reconstructed epidermis model subjected to PMA stress, as well as in a reconstructed epidermis model subjected to SDS (Sodium Dodecyl Sulfate) stress.\nNormal human keratinocytes were pre-incubated for 24 hours in the presence of 0.001%, 0.005% or 0.01% tea tree oil concentrate or 0.1 μM dexamethasone, an anti-inflammatory reference. The cells were then stimulated by overnight treatment in the presence of 10 μg/mL PMA (Phorbol-Myristate-Acetate).\nAt the end of treatment, IL-1 alpha produced was quantified by ELISA assay in culture supernatants.\nThe results were statistically analyzed by one-way analysis of variance (ANOVA), followed by Tukey post-test."}, "[2]": {"tested_on": "Interleukin-1 alpha", "assay": "IL-1 alpha produced by reconstructed epidermis stimulated by PMA", "settings": "Dexamethasone 1 μM systemically; PMA 0.5 μg/mL", "protocol": "as §1\n(§2) Reconstructed epidermis were treated topically with a formulation (cream) containing 1% tea tree oil concentrate or its placebo, or systemically with 1 μM dexamethasone, an anti-inflammatory reference. After 24 hours of pre-incubation, epidermis were stimulated with 0.5 μg/mL of PMA and incubated again for 24 hours.\nCulture subnatants were collected then IL-1 alpha assay was performed.\n(§3) The results were statistically analyzed using ANOVA followed by Tukey's test.\nas §2, with “μg/ml” for “μg/mL”, “hours. […]” for “hours.”"}, "[3]": {"tested_on": "CXCL1, IL8, IL6, CCL2, SOD2, HAS2, MMP1, MMP3 gene expression in normal human dermal fibroblasts", "assay": "Inflamm'aging model: gene expression in fibroblasts incubated with conditioned media of PMA-stimulated reconstructed epidermis", "settings": "Dexa. 1 μM; control = 100", "protocol": "Tea oil concentrate was evaluated in an in vitro model reproducing the process of “inflammaging”: inflammation, represented by the stimulation of IL-1 alpha production, is induced on reconstructed epidermis. The conditioned media of these reconstructed epidermis are then applied to fibroblasts and the expression of dermal markers, altered by IL1a produced by the epidermis, is evaluated.\nas §2, with “μg/ml” for “μg/mL”\nCulture subnatants were collected, IL-1 alpha assay was performed on the one hand, and on the other hand, these subnatants (conditioned media) were deposited on cultures of normal human dermal fibroblasts.\nAfter 24 hours of incubation of fibroblasts in the presence of conditioned media, the expression of markers of interest was assessed by real-time quantitative PCR.\nas §3"}, "[4]": {"tested_on": "dermal matrix markers (Collagen III, Fibrillin 1)", "assay": "Gene expression of dermal matrix markers in normal human dermal fibroblasts (real-time PCR)", "settings": "TGFβ 1 5 ng/ml, 48 hours", "protocol": "The effect of tea oil concentrate on the expression of dermal matrix markers was evaluated in cultured normal human dermal fibroblasts.\nNormal human dermal fibroblasts were incubated for 48 hours in the presence of 0.001% and 0.005% tea oil concentrate or 5 ng/ml TGFβ1, the positive reference of the test.\nGene expression of Collagen Ill and Fibrillin 1 was evaluated by quantitative real-time PCR. The results were statistically analyzed by one-way analysis of variance (ANOVA), followed by Dunnett's post-test."}, "[5]": {"tested_on": "cortisol", "assay": "Cortisol produced by skin explants stimulated by ACTH + 42° C. (ELISA)", "settings": "Metyrapone 1 mM", "protocol": "Skin explants were treated topically with a formulation (cream) containing 1% tea oil concentrate, or its placebo, or treated systemically (in the culture medium) with 0.001% tea oil concentrate and the positive reference metyrapone at 1 mM. The explants were incubated for 24 hours then stressed with 0.6 μM ACTH (Adreno Corticotropic Hormone), a hormone that induces cortisol production. This stress was coupled with explant culture in a 42° C. incubator to potentiate the increase in cortisol production. The explants were again treated with topical products or the active ingredient and the positive reference systemically. After 24 hours of incubation, the culture media were recovered and an ELISA assay for cortisol was performed. The results were statistically analyzed by Student's test t."}, "[6]": {"settings": "ACTH 0.6 μM + 42° C., Table 16 (systemic series)"}}}
{"compound": "C[C@@H]1C[C@H]2[C@@H]3CCC4=CC(=O)C=C[C@]4(C)[C@@]3(F)[C@@H](O)C[C@]2(C)[C@@]1(O)C(=O)CO", "note": "[Dexamethasone, dexamethasone]", "values": [{"measurement": "IL-1 alpha", "setting": "[1]; 24 h pre-incubation", "value": "66.6 ± 0.5", "unit": "pg/mL"}, {"measurement": "Protection (%)", "setting": "[1]", "value": 74, "unit": "%"}, {"measurement": "% Protection", "setting": "[2]", "value": 48, "unit": "%"}, {"measurement": "Interleukin-1 alpha", "setting": "[2]", "value": "334 ± 41", "unit": "pg/mL"}, {"measurement": "CCL2 expression level in relative quantity", "setting": "[3]", "value": 193}, {"measurement": "CXCL1 expression level in relative quantity", "setting": "[3]", "value": 1503}, {"measurement": "HAS2 expression level in relative quantity", "setting": "[3]", "value": 104}, {"measurement": "IL6 expression level in relative quantity", "setting": "[3]", "value": 305}, {"measurement": "IL8 expression level in relative quantity", "setting": "[3]", "value": 1350}, {"measurement": "MMP1 expression level in relative quantity", "setting": "[3]", "value": 52}, {"measurement": "MMP3 expression level in relative quantity", "setting": "[3]", "value": 74}, {"measurement": "SOD2 expression level in relative quantity", "setting": "[3]", "value": 354}]}
{"compound": "TGFβ 1: the positive reference of the test", "values": [{"measurement": "Collagen III gene expression (Relative Quantity)", "setting": "[4]", "value": "1.55 ± 0.25"}, {"measurement": "Fibrillin 1 gene expression (Relative Quantity)", "setting": "[4]", "value": "1.53 ± 0.18"}, {"measurement": "Collagen III gene expression % induction", "setting": "[4]; vs control cells", "value": "+78% p < 0.05"}, {"measurement": "Fibrillin 1 gene expression % induction", "setting": "[4]; vs control cells", "value": "+74% p < 0.05"}]}
{"compound": "CC(C)(C(=O)c1cccnc1)c1cccnc1", "note": "[Metyrapone, metyrapone]", "values": [{"measurement": "Cortisol % Protection", "setting": "[5]; [6]", "value": 70, "unit": "%"}, {"measurement": "Cortisol Relative quantification", "setting": "[5]; [6]", "value": "1.08 ± 0.12"}, {"measurement": "Cortisol Relative quantification", "setting": "[5]; ACTH 0.6 μM + 42° C., Table 17 (topical series)", "value": "1.08 ± 0.12"}, {"measurement": "Cortisol % Protection (vs ACTH/42° C.)", "setting": "[5]; Table 17 (topical series)", "value": 73, "unit": "%"}]}
